Laboratory results from the NIST ThermoML archive (doi:10.1016/j.fluid.2018.09.026).
“And” between values parts separate entries of the source, which are not always exact repeats. Identical values can stand only once.

Settings: Liquid; for mass density: Vibrating tube method; for viscosity: Vibrating wire viscometry

OCCOCCOCCO [triethylene glycol]
Settings	mass density [kg/m3]	viscosity
283.15 K, 100 kPa	1130.8	–
283.15 K, 660 kPa	1131	–
283.15 K, 1150 kPa	1131.2	–
283.15 K, 1570 kPa	1131.4	–
283.15 K, 2090 kPa	1131.6	–
283.15 K, 3090 kPa	1132	–
283.15 K, 5060 kPa	1132.9	–
283.15 K, 6940 kPa	1133.6	–
283.15 K, 10020 kPa	1134.9	–
283.15 K, 14850 kPa	1136.9	–
283.15 K, 19830 kPa	1138.9	–
283.15 K, 24700 kPa	1140.8	–
283.15 K, 29600 kPa	1142.7	–
283.15 K, 34510 kPa	1144.6	–
283.15 K, 39360 kPa	1146.4	–
283.15 K, 44290 kPa	1148.2	–
283.15 K, 49180 kPa	1150	–
283.15 K, 54110 kPa	1151.7	–
283.15 K, 58970 kPa	1153.4	–
283.15 K, 63860 kPa	1155.1	–
283.15 K, 68790 kPa	1156.8	–
293.15 K, 100 kPa	1122.9	–
293.15 K, 640 kPa	1123.1	–
293.15 K, 1090 kPa	1123.4	–
293.15 K, 1600 kPa	1123.6	–
293.15 K, 2140 kPa	1123.8	–
293.15 K, 3080 kPa	1124.2	–
293.15 K, 5030 kPa	1125.1	–
293.15 K, 7010 kPa	1125.9	–
293.15 K, 9950 kPa	1127.2	–
293.15 K, 14850 kPa	1129.3	–
293.15 K, 19770 kPa	1131.3	–
293.15 K, 24660 kPa	1133.3	–
293.15 K, 29510 kPa	1135.2	–
293.15 K, 34610 kPa	1137.2	–
293.15 K, 39370 kPa	1139.1	–
293.15 K, 44320 kPa	1141	–
293.15 K, 49130 kPa	1142.8	–
293.15 K, 54050 kPa	1144.6	–
293.15 K, 59060 kPa	1146.4	–
293.15 K, 63780 kPa	1148	–
293.35 K, 240 kPa	–	46.83 mPa·s [middle of 4 runs]
293.35 K, 1160 kPa	–	47.82 mPa·s
293.35 K, 1200 kPa	–	47.73 mPa·s
293.35 K, 1230 kPa	–	47.49 mPa·s
293.35 K, 1240 kPa	–	47.46 mPa·s and 47.21 mPa·s and 47.42 mPa·s
293.35 K, 2170 kPa	–	48.09 mPa·s
293.35 K, 2200 kPa	–	47.9 mPa·s
293.35 K, 2220 kPa	–	47.44 mPa·s
293.35 K, 2270 kPa	–	47.58 mPa·s
293.35 K, 5010 kPa	–	49.43 mPa·s
293.35 K, 5030 kPa	–	49.23 mPa·s
293.35 K, 5040 kPa	–	49.42 mPa·s
293.35 K, 10520 kPa	–	51.72 mPa·s
293.35 K, 10530 kPa	–	51.62 mPa·s
293.35 K, 10540 kPa	–	51.26 mPa·s
293.35 K, 10620 kPa	–	51.34 mPa·s
293.35 K, 10630 kPa	–	51.5 mPa·s
293.35 K, 20180 kPa	–	56.36 mPa·s
293.35 K, 20210 kPa	–	56.39 mPa·s and 56.29 mPa·s and 56.71 mPa·s
293.35 K, 29650 kPa	–	61.22 mPa·s
293.35 K, 29660 kPa	–	61.45 mPa·s
293.35 K, 62400 kPa	–	81.01 mPa·s
293.35 K, 62810 kPa	–	81.71 mPa·s
293.35 K, 63230 kPa	–	82.04 mPa·s
303 K, 190 kPa	–	28.88 mPa·s [middle of 5 runs]
303 K, 330 kPa	–	28.5 mPa·s and 29.08 mPa·s
303 K, 340 kPa	–	29.02 mPa·s
303 K, 1210 kPa	–	29.06 mPa·s
303 K, 1220 kPa	–	29.35 mPa·s and 29.62 mPa·s
303 K, 2000 kPa	–	29.4 mPa·s
303 K, 2020 kPa	–	29.29 mPa·s
303 K, 2030 kPa	–	29.32 mPa·s
303 K, 2100 kPa	–	29.31 mPa·s
303 K, 2150 kPa	–	29.15 mPa·s
303 K, 5250 kPa	–	30.07 mPa·s
303 K, 5270 kPa	–	30.07 mPa·s
303 K, 5280 kPa	–	30.31 mPa·s
303 K, 10160 kPa	–	31.63 mPa·s
303 K, 10170 kPa	–	31.41 mPa·s
303 K, 10190 kPa	–	31.65 mPa·s
303 K, 10210 kPa	–	31.52 mPa·s
303 K, 10220 kPa	–	31.49 mPa·s and 31.52 mPa·s
303 K, 20290 kPa	–	34.2 mPa·s
303 K, 20300 kPa	–	34.25 mPa·s
303 K, 20320 kPa	–	34.32 mPa·s
303 K, 20330 kPa	–	34.25 mPa·s and 34.3 mPa·s
303 K, 30260 kPa	–	37.03 mPa·s and 37.15 mPa·s and 37.36 mPa·s
303 K, 30270 kPa	–	37 mPa·s
303 K, 50510 kPa	–	43.39 mPa·s
303 K, 50590 kPa	–	43.57 mPa·s
303 K, 50660 kPa	–	43.63 mPa·s
303 K, 64010 kPa	–	47.91 mPa·s
